In patent US20250327074A1 (SHAOXING INSTITUTE, ZHEJIANG UNIVERSITY, priority 2024, published 2025):

These molecules were tested on FLucY255ACG/K529TCG mutant (assay: FLuc dual caged UAA decaging luminescence assay). Settings: dual incorporation of ONBY with TCOK/PABK.
Assay type: cell-based
Excerpt: To established a method for orthogonal activation control of proteins, two caged UAAs are incorporated site-specifically into the active pocket or adjacent sites of target proteins through the dual rare codon recoding strategy, wherein steric hindrance leads to the protein inactivation, followed by protein activation through photochemical or chemical decaging strategies. The TCG/ACG dual recoding system decodes TCG/ACG sites as serine/threonine in the absence of UAAs. During the screening of FLuc, the K529 and Y255 site are identified with minimal background upon serine incorporation and threonine incorporation respectively, which were subsequently used for dual caged UAA incorporation. Using the FLucY255ACG/K529TCG mutant as an example, the TCG recoding system decoding ONBY, the ACG recoding system decoding TCOK/PABK, and reporter genes were co-transfected into cells, followed by luminescence assay to evaluate protein activation.

SMILES	FLuc activity in the presence of both caged UAAs, before decaging
N[C@@H](Cc1ccc(OCc2ccccc2[N+](=O)[O-])cc1)C(=O)O [ONBY]	nearly complete inactivation
[N-]=[N+]=Nc1ccc(COC(=O)NCCCC[C@H](N)C(=O)O)cc1 [PABK]	nearly complete inactivation
N[C@@H](CCCCNC(=O)OC1/C=C/CCCCC1)C(=O)O (some centres unmarked) [TCOK]	nearly complete inactivation

Each molecule was assayed on rare codon in EGFP reporter, HEK293T cells (assay: LC-MS recoding efficiency of rare codons in EGFP reporter). Settings: TCG at position 151 of EGFP; 12× tRNA; serine/glycine-free medium; 500 μM unnatural amino acid.
Assay type: cell-based
Method: The recoding translation system and the rare codon-bearing POI were co-transfected into HEK293T cells. Then, two methods were used to calculate the ncAA recoding rate: 1) LC-MS analysis: the protein of the POI mixture, including the fraction incorporated with ncAA and the fraction with NAA at rare codons, was purified by Ni2+-NTA beads and subjected to LC-MS analysis. The ncAA recoding rate was determined by the intensity of two fractions quantified by LC-MS. 2) TCO-PEG5000 mass tag labeling analysis: this method was suitable for quantifying the TetBu recoding rate in this work. When the protein mixture was incubated with TCO-PEG5000 mass tag, the protein incorporated with TetBu would be labeled by this mass tag and migrated much slower in SDS-PAGE.
When the recoding system (TetRS/PylTyyy) is co-expressed with a target protein carrying the recoding codon in HEK293T, the recoding codon can be translated into a natural amino acid by endogenous tRNA (Dec-tRNA), or recoding into TetBu by the engineered tRNA (Rec-tRNA), producing a mixture of protein byproducts (with a single-site mutation) and the target protein containing TetBu. Based on this, two methods were established to assess sense codon recoding efficiency: a) Liquid chromatography-mass spectrometry (LC-MS) for differentiates proteins based on molecular weight differences, and b) TCO-PEG5000 macromolecular label target proteins containing TetBu, which increases their molecular weight by 5 kDa. The shift in protein bands is detected via immunoblotting (FIG. 2).
(1) Transfection: Plasmids encoding the TetBu/PylTyyy recoding system (where xxx represents different codons and yyy represents different anticodons) were co-transfected with the plasmid mCherry-T2A-EGFP^N149XXX-6×His at a 1:1 (g:g) ratio. For a 10 cm dish, the total transfection mixture contained 20 μg DNA+[…] Lipofectamine 2000+2 mL Opti-MEM.
(2) Protein expression and purification: After 6 hours, the medium was replaced with fresh DMEM containing 200 μM TetBu for 40 hours to induce protein expression. Cells were lysed in 1 mL Modified RIPA Buffer, and the supernatant was purified using Ni-NTA beads.
(3) LC-MS analysis of recoding efficiency:Using a Waters Xevo G2-XS TOF Mass Spectrometer, the recoding efficiency of rare codons (CTA, GTA, CGT, CCG, GCG, ACG, and TCG) at the EGFP149 site was evaluated.
(2) Cell transfection and protein expression purification: HEK293T cells were seeded in 10 cm culture dishes and transfected at 60-70% confluency. For each transfection, […] of plasmid carrying mCherry-T2A-EGFPY151TCG-6×His was co-transfected with one of the following recoding system plasmids: chPhe_AcFRS/12×(U6-chPheTCGA), EcTyr_OmeYRS/12×(U6-EcTyrTCGA), or EcLeu_OmeYRS/12×(U6-EcLeuTCGA). After 6 hours, the medium was replaced with serine/glycine-free DMEM/F12 containing 500 μM of the respective unnatural amino acid. Following protein expression and purification, LC-MS was used to determine TCG recoding efficiency at position 151 of EGFP. Detailed transfection and purification protocols following section 2.2.1.2, with cell culture conditions in serine-free medium as described in Example 2.

SMILES	recoding efficiency [%]
CC(=O)NCCCC[C@H](N)C(=O)O [AcK]	78
CC(C)(C)OC(=O)NCCCC[C@H](N)C(=O)O [BocK, ε-N-tert-butyloxycarbonyllysine]	82
CCCC(=O)NCCCC[C@H](N)C(=O)O [Kbu]	74
C/C=C/C(=O)NCCCC[C@H](N)C(=O)O [Kcr, ε-N-crotonyl-lysine]	84
CCC(=O)NCCCC[C@H](N)C(=O)O [Kpr]	79
N[C@@H](Cc1ccc(OS(=O)(=O)O)cc1)C(=O)O [sTyr]	85

The molecules below were run on TCG codon, mammalian cells (assay: TCG codon recoding efficiency of all amino acids (Table 1)). Settings: TCG codon recoding of the unnatural amino acid with the aaRS and mutation of the same table line; class symbols.
Assay type: cell-based
Excerpt: Specific details are shown in Table 1 below, where “wt” represents the wild-type aminoacyl-tRNA synthetase, “mutation sites” indicate the positions and types of mutations related to specific unnatural amino acid binding on the wild-type aminoacyl-tRNA synthetase, and “unnatural amino acid” represents the unnatural amino acid corresponding to the mutated aminoacyl-tRNA synthetase. In the unnatural amino acid encoding efficiency, “+” indicates a recoding efficiency greater than 40%, “++” greater than 60%, and “+++” greater than 80%.
Accordingly, this application compiles all amino acids reported in the literature that are recognized by orthogonal aminoacyl-tRNA synthetases in mammalian systems and evaluates their recoding efficiency using the TCG codon as an example.

SMILES	Recoding rate (%)
CCOc1cc(COC[C@H](N)C(=O)O)c([N+](=O)[O-])cc1OCC [compound 402]	+++ (“+++” greater than 80%)
C=CC[S+]([O-])C[C@@H](N)C(=O)O (some centres unmarked) [compound 405]	+++ (“+++” greater than 80%)
C=CCCC[C@H](N)C(=O)O [compound 406]	+++ (“+++” greater than 80%)
CC=CCOC[C@H](N)C(=O)O [compound 408]	+++ (“+++” greater than 80%)
C=CCCCOC[C@H](N)C(=O)O [compound 409]	+++ (“+++” greater than 80%)
N[C@@H](Cc1c[nH]c2ccc(Br)cc12)C(=O)O [compound 414]	+ (“+” indicates a recoding efficiency greater than 40%)
C#CCOc1ccc2[nH]cc(C[C@H](N)C(=O)O)c2c1 [compound 415]	+ (“+” indicates a recoding efficiency greater than 40%)
[N-]=[N+]=Nc1ccc2[nH]cc(C[C@H](N)C(=O)O)c2c1 [compound 416]	+ (“+” indicates a recoding efficiency greater than 40%)
Nc1ccc2[nH]cc(C[C@H](N)C(=O)O)c2c1 [compound 417]	+ (“+” indicates a recoding efficiency greater than 40%)

Same assay, conditions: TCG codon recoding of the unnatural amino acid with the aaRS and mutation of the same table line; numeric values

SMILES	Recoding rate (%)
CCOc1cc(CSC[C@H](N)C(=O)O)c([N+](=O)[O-])cc1OCC [compound 403]	84
CCOc1cc(C[Se]CC(N)C(=O)O)c([N+](=O)[O-])cc1OCC (centres unmarked) [compound 404]	59
C=CCCCC[C@H](N)C(=O)O [compound 407]	81
CC(=O)N(C)CCCC[C@H](N)C(=O)O [compound 410]	83
N[C@@H](Cc1c[nH]c2ccc(O)cc12)C(=O)O [compound 411]	75
Cc1ccc2[nH]cc(C[C@H](N)C(=O)O)c2c1 [compound 412]	37
COc1ccc2[nH]cc(C[C@H](N)C(=O)O)c2c1 [compound 413]	85
N[C@@H](Cc1c[nH]c2cccc(F)c12)C(=O)O [compound 418]	82

Each molecule was assayed on EGFP F84TCG mutant (assay: EGFP F84TCG fluorescence activation by UAA). Settings: not given.
Assay type: cell-based
Excerpt: Using EGFP as an example, this example describes a general method for screening recoding sites and UAA types in protein activation regulated by UAA incorporation. In the absence of UAAs, the TCG recoding system decodes the TCG codon as serine (Ser). To maximize disruption towards protein function, we screened phenylalanine (Phe), tyrosine (Tyr), and tryptophan (Trp)—amino acids with the greatest structural divergence from Ser for potential incorporation. Following identification of Ser-substituted inactivation sites, we screened UAAs capable of rescuing protein activity, yielding optimal recoding system/UAA pairs (a-b of FIG. 22). […] This strategy was successfully extended to diverse proteins including fluorescent proteins (e.g., mCherry), enzymes (e.g., luciferase, kinases, peroxidases), and translation regulators (e.g., initiation factors, post-translational modification readers).

SMILES	concentration with detectable EGFP activation [mM]	time to fluorescence activation after UAA delivery [min]
COc1ccc(C[C@H](N)C(=O)O)cc1 [OmeY, O-methyl-tyrosine]	0.00001	≤ 1

Same assay, conditions: TCG-recoding system decoding OmeY

SMILES	fluorescence enhancement upon UAA addition versus no UAA [fold]
COc1ccc(C[C@H](N)C(=O)O)cc1 [OmeY, O-methyl-tyrosine]	> 100
